Each structure is given as a SMILES string.

Holding throughout (test): Enzyme Assay
Assay [1] concerns the target PIK3CA (human) (UniProt P42336).
Assay [2] concerns the target PIK3CB (Human) (UniProt P42338).
Assay [3] addresses PIK3CD (Human) (UniProt O00329).

PIK3CD (Human), sequence (O00329 whole entry, looked up): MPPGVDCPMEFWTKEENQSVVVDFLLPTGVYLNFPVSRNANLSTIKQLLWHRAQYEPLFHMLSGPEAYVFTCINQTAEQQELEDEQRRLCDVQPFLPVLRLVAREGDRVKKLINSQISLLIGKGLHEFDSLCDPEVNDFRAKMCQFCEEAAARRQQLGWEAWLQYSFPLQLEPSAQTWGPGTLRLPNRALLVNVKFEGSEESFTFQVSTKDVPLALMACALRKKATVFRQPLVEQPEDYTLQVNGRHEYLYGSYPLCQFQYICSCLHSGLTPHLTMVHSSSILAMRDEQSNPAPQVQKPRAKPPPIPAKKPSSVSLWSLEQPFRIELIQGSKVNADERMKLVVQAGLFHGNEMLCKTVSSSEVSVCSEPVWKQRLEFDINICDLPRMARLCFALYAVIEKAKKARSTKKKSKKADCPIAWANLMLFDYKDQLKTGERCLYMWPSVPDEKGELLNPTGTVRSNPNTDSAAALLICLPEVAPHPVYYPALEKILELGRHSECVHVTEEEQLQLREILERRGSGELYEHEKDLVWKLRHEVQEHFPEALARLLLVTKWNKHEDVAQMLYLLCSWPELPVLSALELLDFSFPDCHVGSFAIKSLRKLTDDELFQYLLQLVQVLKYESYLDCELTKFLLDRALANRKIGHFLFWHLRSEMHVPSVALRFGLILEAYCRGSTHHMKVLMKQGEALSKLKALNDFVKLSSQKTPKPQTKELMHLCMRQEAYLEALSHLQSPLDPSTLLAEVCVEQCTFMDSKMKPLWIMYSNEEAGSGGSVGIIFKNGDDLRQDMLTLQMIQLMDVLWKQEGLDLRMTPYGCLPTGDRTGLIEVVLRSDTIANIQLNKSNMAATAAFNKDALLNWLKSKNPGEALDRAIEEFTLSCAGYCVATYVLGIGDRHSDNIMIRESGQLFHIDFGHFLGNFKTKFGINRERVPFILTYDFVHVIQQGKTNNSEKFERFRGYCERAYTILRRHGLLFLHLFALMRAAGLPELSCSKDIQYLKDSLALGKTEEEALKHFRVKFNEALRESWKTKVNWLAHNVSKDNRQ
PIK3CB (Human), sequence (P42338 whole entry, looked up): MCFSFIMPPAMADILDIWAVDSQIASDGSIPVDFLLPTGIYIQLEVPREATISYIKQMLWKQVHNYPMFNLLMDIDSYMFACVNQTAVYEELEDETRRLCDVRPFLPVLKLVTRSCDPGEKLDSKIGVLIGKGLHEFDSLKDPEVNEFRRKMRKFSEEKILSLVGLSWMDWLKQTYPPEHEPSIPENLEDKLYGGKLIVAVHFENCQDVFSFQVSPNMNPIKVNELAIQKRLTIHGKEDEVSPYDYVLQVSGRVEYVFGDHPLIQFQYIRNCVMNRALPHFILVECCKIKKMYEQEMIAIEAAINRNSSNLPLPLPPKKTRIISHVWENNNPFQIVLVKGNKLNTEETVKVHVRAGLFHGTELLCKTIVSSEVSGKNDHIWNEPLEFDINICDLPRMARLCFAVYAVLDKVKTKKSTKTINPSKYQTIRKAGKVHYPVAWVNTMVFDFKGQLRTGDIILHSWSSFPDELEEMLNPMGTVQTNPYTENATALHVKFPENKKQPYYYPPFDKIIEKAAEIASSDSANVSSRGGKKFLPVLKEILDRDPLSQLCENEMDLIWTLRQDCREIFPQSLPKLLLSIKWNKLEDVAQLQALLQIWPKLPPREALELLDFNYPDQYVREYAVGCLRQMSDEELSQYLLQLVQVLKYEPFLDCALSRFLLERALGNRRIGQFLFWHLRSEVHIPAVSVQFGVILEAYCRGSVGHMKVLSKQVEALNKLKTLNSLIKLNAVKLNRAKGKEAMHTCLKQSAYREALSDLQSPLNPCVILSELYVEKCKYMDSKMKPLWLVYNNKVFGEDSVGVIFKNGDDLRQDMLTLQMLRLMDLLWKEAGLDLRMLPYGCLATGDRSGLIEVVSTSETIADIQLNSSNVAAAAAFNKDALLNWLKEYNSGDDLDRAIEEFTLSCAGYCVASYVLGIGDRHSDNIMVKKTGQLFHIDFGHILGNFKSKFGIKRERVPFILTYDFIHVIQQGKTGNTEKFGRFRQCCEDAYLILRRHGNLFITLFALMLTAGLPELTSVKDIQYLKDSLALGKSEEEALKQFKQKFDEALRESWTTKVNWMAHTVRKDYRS
PIK3CA (human), sequence (P42336 whole entry, looked up): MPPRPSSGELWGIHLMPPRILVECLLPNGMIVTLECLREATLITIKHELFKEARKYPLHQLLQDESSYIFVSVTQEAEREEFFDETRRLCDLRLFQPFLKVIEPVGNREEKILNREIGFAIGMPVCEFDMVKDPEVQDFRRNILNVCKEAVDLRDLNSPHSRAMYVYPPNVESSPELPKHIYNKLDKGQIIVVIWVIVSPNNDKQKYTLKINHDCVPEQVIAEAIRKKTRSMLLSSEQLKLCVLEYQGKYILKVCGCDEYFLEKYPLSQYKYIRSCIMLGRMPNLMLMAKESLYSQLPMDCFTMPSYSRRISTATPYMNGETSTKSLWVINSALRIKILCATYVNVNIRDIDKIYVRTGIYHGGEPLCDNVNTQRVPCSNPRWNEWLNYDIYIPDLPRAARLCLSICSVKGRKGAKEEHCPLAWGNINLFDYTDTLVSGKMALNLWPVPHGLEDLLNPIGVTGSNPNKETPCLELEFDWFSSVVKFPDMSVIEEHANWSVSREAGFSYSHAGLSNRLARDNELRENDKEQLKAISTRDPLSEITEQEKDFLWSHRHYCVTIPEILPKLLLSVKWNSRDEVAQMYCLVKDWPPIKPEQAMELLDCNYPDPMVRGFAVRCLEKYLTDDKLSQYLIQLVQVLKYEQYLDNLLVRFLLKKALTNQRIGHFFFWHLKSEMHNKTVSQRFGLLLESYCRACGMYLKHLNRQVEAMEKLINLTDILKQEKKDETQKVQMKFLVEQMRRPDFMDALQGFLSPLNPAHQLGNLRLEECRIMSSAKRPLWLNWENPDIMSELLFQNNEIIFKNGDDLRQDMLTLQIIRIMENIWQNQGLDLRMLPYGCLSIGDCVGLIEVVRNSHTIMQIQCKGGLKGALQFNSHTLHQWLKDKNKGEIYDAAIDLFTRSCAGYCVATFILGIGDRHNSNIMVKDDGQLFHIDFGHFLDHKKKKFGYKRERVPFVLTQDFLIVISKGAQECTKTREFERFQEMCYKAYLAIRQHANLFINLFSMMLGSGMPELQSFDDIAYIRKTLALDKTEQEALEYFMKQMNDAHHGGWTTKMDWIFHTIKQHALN

Take `COc1cc(-c2nn(Cc3cc4cccc(C)c4c(=O)n3-c3ccccc3C)c3ncnc(N)c23)ccc1Cl`: the figures for the IC50 in assay [1], in assay [2] and in assay [3] were above 10000 nM, above 10000 nM and 100 to 1000 nM, respectively.

As for `Cc1cccc2cc([C@H](C)Nc3cc(N)nc(Cl)n3)n(-c3ccccc3)c(=O)c12`, the IC50 (as a rule, the concentration that gives 50% inhibition) was above 10000 nM in assay [1], above 10000 nM in assay [2] and 100 to 1000 nM in assay [3].

On to `Cc1ccccc1-n1c(Cn2nc(I)c3c(N)ncnc32)cc2cccc(F)c2c1=O`, for which the results for the IC50 in assay [1], in assay [2] and in assay [3] were above 10000 nM, above 10000 nM and 100 to 1000 nM, respectively.

`Cc1cccc2cc(Cn3nc(Cl)c4c(N)ncnc43)n(-c3ccccc3F)c(=O)c12`: the results for the IC50 in assay [1], in assay [2] and in assay [3] were above 10000 nM, above 10000 nM and 100 to 1000 nM, respectively.

For the molecule `Cc1cccc2cc(Cn3nc(-c4ccc5nc(N)sc5c4)c4c(N)ncnc43)n(-c3ccccc3)c(=O)c12`, the results for the IC50 in assay [1], in assay [2] and in assay [3] were below 100 nM, 100 to 1000 nM and below 100 nM, respectively.

As for `C[C@H](Nc1ncnc2[nH]cnc12)c1cc2cccc(Cl)c2c(=O)n1C1CC1`, the IC50 in assay [1] is 100 to 1000 nM; in assay [2], below 100 nM; in assay [3], below 100 nM.

`Cc1cccc2cc([C@H](C)Nc3ncnc4[nH]cc(Cl)c34)n(-c3ccccc3)c(=O)c12`: the IC50 is 100 to 1000 nM in assay [1], below 100 nM in assay [2] and below 100 nM in assay [3].

With `Cc1cccc2cc([C@H](C)Nc3ncnc4[nH]cc(F)c34)n(C3CC3)c(=O)c12`, the IC50 is 100 to 1000 nM in assay [1], below 100 nM in assay [2] and below 100 nM in assay [3].

For the molecule `Cc1cccc2cc(Cn3nc(-c4ccc5sc(N)nc5c4)c4c(N)ncnc43)n(-c3ccccc3)c(=O)c12`, the IC50 in assay [1] was 100 to 1000 nM; in assay [2], 100 to 1000 nM; in assay [3], below 100 nM.

As to `Cc1cccc2cc([C@H](C)NC3CCOCC3)n(-c3ccccc3)c(=O)c12`, the IC50 in assay [1], in assay [2] and in assay [3] was above 10000 nM in each case.

On to `Cc1cccc2cc([C@@H](C)Nc3ncnc4[nH]cnc34)n(C3CCC3)c(=O)c12`, for which the IC50 in assay [1], in assay [2] and in assay [3] was above 10000 nM in each case.

Turning to `Cc1ccccc1-n1c(Cn2nc(C#C[C@@H](C)O)c3c(N)ncnc32)cc2cccc(F)c2c1=O`, the IC50 in assay [1] was above 10000 nM; in assay [2], above 10000 nM; in assay [3], 100 to 1000 nM.

Turning to `Cc1cccc2cc([C@H](C)Nc3nc(N)ncc3C(N)=O)n(C3CC3)c(=O)c12`, the IC50 in assay [1], in assay [2] and in assay [3] was above 10000 nM each time.

Consider `COc1ccc(-c2nn(Cc3cc4cccc(C)c4c(=O)n3-c3ccccc3C)c3ncnc(N)c23)cc1OC`, for which the IC50 in assay [1] was above 10000 nM; in assay [2], above 10000 nM; in assay [3] it was 100 to 1000 nM.

On to `Cc1cccc2cc(Cn3nc(-c4ccn[nH]4)c4c(N)ncnc43)n(-c3ccccc3F)c(=O)c12`, for which the IC50 in assay [1] is above 10000 nM; in assay [2], above 10000 nM; in assay [3], 100 to 1000 nM.

On to `Cc1cccc2cc(C(C)Nc3nc(Cl)ncc3N)n(-c3ccccc3)c(=O)c12` (stereo not drawn), for which the IC50 in assay [1], in assay [2] and in assay [3] was above 10000 nM throughout.

Take `C=Cc1nn(Cc2cc3cccc(C)c3c(=O)n2-c2ccccc2F)c2ncnc(N)c12`: the IC50 in assay [1] was above 10000 nM; in assay [2], above 10000 nM; in assay [3] it was 100 to 1000 nM.

Consider `Cc1cccc2cc(Cn3nc(I)c4c(N)ncnc43)n(C3CCCCC3)c(=O)c12`, for which the IC50 is above 10000 nM in assay [1], above 10000 nM in assay [2] and 100 to 1000 nM in assay [3].

On to `Cc1cccc2cc([C@H](C)Nc3ncnc4[nH]cc(C(N)=O)c34)n(C3CC3)c(=O)c12`, for which the IC50 in assay [1] was 100 to 1000 nM; in assay [2] it was below 100 nM; in assay [3], below 100 nM.

With `Cc1cccc2cc([C@H](C)Nc3ncnc4[nH]c(O)nc34)n(-c3ccccc3)c(=O)c12`, the IC50 in assay [1], in assay [2] and in assay [3] was above 10000 nM each time.

For `Cc1cccnc1-n1c(Cn2nc(C#C[C@@H](C)O)c3c(N)ncnc32)cc2cccc(C)c2c1=O`, the IC50 in assay [1] was above 10000 nM; in assay [2], above 10000 nM; in assay [3], 100 to 1000 nM.

With `Cc1cccc2cc([C@H](C)Nc3ncnc4[nH]cc(Br)c34)n(-c3ccccc3)c(=O)c12`, the values for the IC50 in assay [1], in assay [2] and in assay [3] were 100 to 1000 nM, below 100 nM and below 100 nM, respectively.

For `Nc1ncnc2c1c(-c1cn[nH]c1)nn2Cc1cc2cccc(F)c2c(=O)n1-c1ccccc1F`, the figures for the IC50 in assay [1], in assay [2] and in assay [3] were above 10000 nM, above 10000 nM and 100 to 1000 nM, respectively.

Turning to `COC(=O)c1nn(Cc2cc3cccc(C)c3c(=O)n2-c2ccccc2C)c2ncnc(N)c12`, the IC50 was above 10000 nM in assay [1], above 10000 nM in assay [2] and 100 to 1000 nM in assay [3].

In the case of `Cc1cccc2cc([C@H](C)Nc3ncnc4[nH]c(Cl)nc34)n(-c3ccccc3)c(=O)c12`, the IC50 in assay [1], in assay [2] and in assay [3] was above 10000 nM throughout.

`Cc1cccc2cc(Cn3nc(-c4ccc5oc(N)nc5c4)c4c(N)ncnc43)n(C3CCC3)c(=O)c12`: the IC50 in assay [1] was 100 to 1000 nM; in assay [2] it was 100 to 1000 nM; in assay [3], below 100 nM.

Take `Cc1cccc2cc(Cn3nc(-c4ccc(O)c(Cl)c4)c4c(N)ncnc43)n(-c3ccccc3F)c(=O)c12`: the IC50 in assay [1] is above 10000 nM; in assay [2], above 10000 nM; in assay [3], 100 to 1000 nM.

`Cc1ccccc1-n1c(Cn2nc(-c3ccc(O)cc3)c3c(N)ncnc32)cc2cccc(C)c2c1=O`: the IC50 is above 10000 nM in assay [1], above 10000 nM in assay [2] and 100 to 1000 nM in assay [3].

Turning to `Cc1cccc2cc([C@H](C)Nc3ncnc4[nH]cnc34)n(-c3ccc(F)cc3)c(=O)c12`, the 50% inhibitory concentration (IC50) in assay [1] was 100 to 1000 nM; in assay [2], below 100 nM; in assay [3], below 100 nM.

As to `Cc1cccc2cc([C@H](C)Nc3ncnc4[nH]cc(Br)c34)n(C3CC3)c(=O)c12`, the figures for the IC50 in assay [1], in assay [2] and in assay [3] were 100 to 1000 nM, below 100 nM and below 100 nM, respectively.

Take `Cc1cccc2cc(Cn3nc(Br)c4c(N)ncnc43)n(-c3ccccc3F)c(=O)c12`: the IC50 in assay [1] is above 10000 nM; in assay [2], above 10000 nM; in assay [3] it was 100 to 1000 nM.

For the molecule `Cc1cccc2cc([C@H](C)Nc3ncnc4[nH]cc(C#N)c34)n(-c3ccccc3)c(=O)c12`, the IC50 in assay [1] was 100 to 1000 nM; in assay [2], below 100 nM; in assay [3], below 100 nM.

Turning to `Cc1cccc2cc(C(C)Nc3nc(O)ncc3N)n(-c3ccccc3)c(=O)c12` (stereo not drawn), the IC50 in assay [1], in assay [2] and in assay [3] was above 10000 nM in each case.

Turning to `Cc1cccc2cc([C@H](C)Nc3ncnc4[nH]cc(C#N)c34)n(C3CC3)c(=O)c12`, the IC50 was 100 to 1000 nM in assay [1], below 100 nM in assay [2] and below 100 nM in assay [3].

Take `Cc1cccc2cc([C@H](C)Nc3nc(Cl)ncc3Cl)n(-c3ccccc3)c(=O)c12`: the IC50 is above 10000 nM in assay [1], above 10000 nM in assay [2] and 100 to 1000 nM in assay [3].

With `COc1cc(F)cc(-c2nn(Cc3cc4cccc(C)c4c(=O)n3-c3ccccc3C)c3ncnc(N)c23)c1`, the IC50 in assay [1] is above 10000 nM; in assay [2] it was above 10000 nM; in assay [3], 100 to 1000 nM.

For the molecule `Cc1cccc2cc(Cn3nc(I)c4c(N)ncnc43)n(C)c(=O)c12`, the IC50 in assay [1] was above 10000 nM; in assay [2], above 10000 nM; in assay [3], 100 to 1000 nM.

As to `CCC(Nc1ncnc2[nH]cnc12)c1cc2cccc(C)c2c(=O)n1-c1cc(F)cc(F)c1` (stereo not drawn), the IC50 in assay [1] is above 10000 nM; in assay [2], above 10000 nM; in assay [3] it was below 100 nM.

Take `Cc1ccccc1-n1c(Cn2nc(-c3ccc4sc(N)nc4c3)c3c(N)ncnc32)cc2cccc(C)c2c1=O`: the IC50 in assay [1] is 100 to 1000 nM; in assay [2], 100 to 1000 nM; in assay [3] it was below 100 nM.

As for `CC(=O)Nc1nc2ccc(-c3nn(Cc4cc5cccc(C)c5c(=O)n4-c4ccccc4C)c4ncnc(N)c34)cc2o1`, the IC50 was above 10000 nM in assay [1], above 10000 nM in assay [2] and below 100 nM in assay [3].

Regarding `Cc1cccc2cc([C@H](C)Nc3cc(N)nc(Cl)n3)n(C3CC3)c(=O)c12`, the IC50 in assay [1], in assay [2] and in assay [3] was above 10000 nM in each case.

`Cc1cccc2cc(C(C)Nc3ncnc4[nH]cnc34)n(C3CCN(C)CC3)c(=O)c12` (stereo not drawn): the IC50 in assay [1] is above 10000 nM; in assay [2], 100 to 1000 nM; in assay [3], below 100 nM.

Consider `Cc1ccccc1-n1c(Cn2nc(CCC(N)=O)c3c(N)ncnc32)cc2cccc(C)c2c1=O`, for which the IC50 in assay [1] was above 10000 nM; in assay [2] it was above 10000 nM; in assay [3] it was 100 to 1000 nM.

Take `Cc1cccc2cc([C@H](C)Nc3nc(N)nc4[nH]cnc34)n(-c3ccccc3)c(=O)c12`: the IC50 in assay [1] is 100 to 1000 nM; in assay [2], below 100 nM; in assay [3], below 100 nM.

For the molecule `Cc1cccc2cc(C(C)Nc3nc(N)nc4[nH]cnc34)n(-c3ccccc3)c(=O)c12` (stereo not drawn), the results for the IC50 in assay [1], in assay [2] and in assay [3] were 100 to 1000 nM, below 100 nM and below 100 nM, respectively.

Turning to `Cc1ccccc1-n1c(Cn2nc(-c3cn[nH]c3)c3c(N)ncnc32)cc2ccccc2c1=O`, the IC50 was above 10000 nM in assay [1], above 10000 nM in assay [2] and 100 to 1000 nM in assay [3].

As to `CCc1nn(Cc2cc3cccc(C)c3c(=O)n2-c2ccccc2C)c2ncnc(N)c12`, the IC50 was above 10000 nM in assay [1], above 10000 nM in assay [2] and below 100 nM in assay [3].

Turning to `Cc1cccc2cc(Cn3nc(C4=CCOCC4)c4c(N)ncnc43)n(-c3ccccc3)c(=O)c12`, the IC50 in assay [1], in assay [2] and in assay [3] was above 10000 nM throughout.

Consider `Cc1ccccc1-n1c(Cn2nc(CF)c3c(N)ncnc32)cc2cccc(C)c2c1=O`, for which the IC50 was above 10000 nM in assay [2] and below 100 nM in assay [3].

Take `Cc1cccc2cc([C@H](C)Nc3ncnc4[nH]nc(C(N)=O)c34)n(-c3ccccc3)c(=O)c12`: the IC50 in assay [2] and in assay [3] was below 100 nM throughout.

The values are drawn from the Kinase Knowledgebase extract (Sharma et al. 2016).
